“Also recorded” adds a separate entry of the source.
Columns and labels:
Assay type in all cases: cell-based, human
[1] = tested on: cisplatin-resistant ovarian cancer cell line A2780cis; test: Caspase-3/7 activity assay (apoptotic cell death), compound alone or with cisplatin; conditions: for activation of Caspase-3/7 in combination with cisplatin compared to mdivi-1: FIG. 7A and Table 6; for caspase-3/7 activity (Lum), compound with cisplatin / caspase-3/7 activity (Lum), compound alone / caspase-3/7 activity (Lum) with compound and cisplatin (20 μM) / caspase-3/7 activity (Lum) with compound alone: 20 h; for caspase-3/7 activity (Lum) with compound and cisplatin (20 μM) / caspase-3/7 activity (Lum) with compound alone: Table 6; for caspase-3/7 activity (Lum) with compound alone: untreated cells 9 ± 1; for activity in the screen (Caspase-3/7 activity and microscopic examination), active / inactive: alone or in the presence of cisplatin
Description: Cell proliferation was determined using a CyQUANT Direct Cell Proliferation Assay kit (Invitrogen), the activity of caspase-3/7 was measured using a Caspase-Glo 3/7 Assay Systems (Promega, Madison, Wis.), and the MTS calorimetric survival assay was performed using the CellTiter 96 AQueous One Solution Cell Proliferation Assay kit (Promega, Madison, Wis.), according to the manufacturer's instructions. The survival fractions were calculated after setting untreated control cells at 100%. The data were plotted and curve fitted using GraphPad Prism software. To quantify the number of cells with active caspase-3, cells were fixed with 4% paraformaldehyde (Electron microscopy sciences, Hatfield, Pa.), stained with Alexa Fluor-488 conjugated antibody against cleaved caspase-3 (Asp175) (Cell Signaling Technology, Danvers, Mass.) followed by flow cytometry. An FITC Annexin V Apoptosis Detection Kit (BD PharMingen, San Diego, Calif.) was used to quantify apoptotic cells, according to the manufacturer's instructions.
A Caspase-3/7 assay was performed to evaluate the activity of the 36 compounds of FIG. 1 in vitro in the cisplatin-resistant ovarian cancer cell line, A2780cis, alone or in the presence of cisplatin. A microscopic examination of apoptotic morphologic changes was also carried out right before the measurement of Caspase-3/7 activity, in order to confirm that the data on the activation of the Caspase-3/7 following treatment is consistent with morphological change and reflects cell death.

[2] = tested on: A2780cis cells; test: Western blot of caspase/PARP cleavage, Noxa induction, RPA32 and H2AX phosphorylation; conditions: compound 20 μM + cisplatin 20 μM, 20 h, FIG. 7B; in words
Description: Whole cell lysate was prepared by lysing cells in cell lysis buffer (Cell signaling technology) containing complete protease inhibitor (Roche). Cell lysates were then cleared at 15,000 rpm for 15 min at 4° C. The protein content was quantified using a Bio-Rad Protein Assay kit (Bio-Rad Laboratories, Hercules, Calif.). The equal amount of protein was separated on Tris-glycine gels (Invitrogen). The separated proteins were blotted onto a polyvinylidene difluoride membrane and blocked overnight at 4° C. in phosphate-buffered saline containing 0.1% Tween 20 and 10% nonfat dry milk (blocking buffer). Membranes were incubated with primary antibodies in blocking buffer overnight at 4° C. Primary antibodies used were: β-actin from Sigma; Bax, Bak, Caspase-9 and cleaved Caspase-3 from Cell Signaling Technology; phospho-Histone H2AX (Ser 139) and Noxa from Millipore. Membranes were then washed and incubated in peroxidase conjugated anti-rabbit IgG (Sigma) or anti-mouse IgG (Sigma) secondary antibody for 1 h at room temperature. Membranes were developed using SuperSignal West Femto Maximum Sensitivity Substrate (Thermo Fisher Scientific).
A2780cis cells were treated with cisplatin alone, compounds alone or in combination with cisplatin at indicated concentrations for 20 h to analyze apoptotic cell death in response to treatment. […] Expression and cleavage of several major caspases (Caspase-8, Caspase-9 and Caspase-3), as well as poly(ADP-ribose) polymerase (PARP) and NOXA. A2780cis cells were treated with cisplatin (20 μM) alone, compounds (20 μM) alone or in combination with cisplatin for 20 h.
To determine the effects of the compounds on DNA damage and mitochondrial dysfunction, A2780cis cells were treated with cisplatin (20 μM) alone or the combination of cisplatin with 20 μM of compound 1-6. Replication protein A (RPA) is a single strand-specific DNA-binding protein, consisting of three subunits, RPA70, RPA32, and RPA14. RPA32 is phosphorylated in response to DNA replication stress. Western blot analysis was performed to evaluate the phosphorylation of RPA32 and histone H2AX, the induction of Noxa expression and cleavage of caspase-3. […] A2780cis cells were treated with cisplatin (50 μM) alone, 1-6 (50 μM) alone or the combination of cisplatin and compound 1-6 for 4 h. The oxygen consumption rate (OCR) was measured by a Seahorse extracellular flux analyzer.

[3] = tested on: cisplatin-resistant ovarian cancer cell line A2780cis; test: CellTiter-Blue cell viability assay, compound alone or with cisplatin or carboplatin, 24 h; conditions: for cell viability after combination with carboplatin compared to carboplatin alone / viability at 10 µM / viability at 20 µM / viability at 50 µM / Survival (%) of cells with compound and carboplatin (200 μM) / survival (%) of cells with compound and cisplatin (20 μM): 24 h; for cell viability after combination with carboplatin compared to carboplatin alone: FIG. 6; for viability at 10 µM / viability at 20 µM / viability at 50 µM: Homo sapiens, A2780cis, untreated cells = 100%, read-out: survival (%) of cells with compound alone; for viability at 10 µM: compound 10 μM; for viability at 20 µM: compound 20 μM; for viability at 50 µM: compound 50 μM
Description: Data were expressed as mean±standard deviation. A Student's t test was used for the comparisons between the treatment with the combination of analogs with cisplatin and with analogs alone. P<0.05 was considered statistically significant. Combination index was calculated using CompuSyn software. A value of 0.3-0.7 for the combination index indicates synergism, 0.1-0.3 indicates strong synergism, and <0.1 indicates very strong synergism (Chou, 2006).
To further validate the activity of the identified 11 active compounds (see FIG. 3), a CellTiter-Blue cell viability assay was performed with increasing concentrations (10 μM, 20 μM and 50 μM) of the disclosed compounds (see FIG. 4 and Table 5). Cisplatin resistant ovarian cancer cells (A2780cis) were treated with a disclosed compound alone, cisplatin alone or a combination of a compound with cisplatin for 24 h to determine the effects of the compounds on cell viability.
Analysis of the effect of the disclosed compounds with another platinum-containing compound, carboplatin, was performed. A2780cis cells were treated with carboplatin alone or with the combination of carboplatin and the disclosed compounds at indicated concentrations for 24 h followed by the analysis of cell viability.

[4] = Table 1, compound 20 μM with 20 μM cisplatin
[5] = Table 1, compound 20 μM, mean ± S.D. of triplicates
[6] = compound 5 μM + cisplatin 20 μM
[7] = compound 10 μM + cisplatin 20 μM
[8] = compound 20 μM + cisplatin 20 μM
[9] = compound 10 μM + carboplatin 200 μM
[10] = compound 20 μM + carboplatin 200 μM
[11] = compound 50 μM + carboplatin 200 μM
[12] = compound 50 μM + cisplatin 20 μM
[13] = Table 3, compound 20 μM with 20 μM of cisplatin

Row | Compound | activation of Caspase-3/7 in combination with cisplatin compared to mdivi-1 ([1]; in words) | caspase-3/7 activity (Lum), compound with cisplatin [1, 4] [Lum] | caspase-3/7 activity (Lum), compound alone [1, 5] [Lum] | caspase-3/7 activity (Lum), compound alone ([1]; Table 2, compound 20 μM) [Lum] | caspase-3/7 activity (Lum) with compound and cisplatin (20 μM) [1, 6] [Lum] | caspase-3/7 activity (Lum) with compound alone ([1]; compound 5 μM) [Lum] | caspase-3/7 activity (Lum) with compound and cisplatin (20 μM) [1, 7] [Lum] | caspase-3/7 activity (Lum) with compound alone ([1]; compound 10 μM) [Lum] | caspase-3/7 activity (Lum) with compound and cisplatin (20 μM) [1, 8] [Lum] | caspase-3/7 activity (Lum) with compound alone ([1]; compound 20 μM) [Lum] | activity in the screen (Caspase-3/7 activity and microscopic examination), active / inactive ([1]; in words) | Caspase-3/7 activity upon combination with cisplatin compared to cisplatin alone or compound alone ([1]; in words) | cleavage of caspases and PARP, induction of Noxa in combination with cisplatin [2] | cell viability after combination with carboplatin compared to carboplatin alone ([3]; in words) | viability at 10 µM [3] [%] | viability at 20 µM [3] [%] | viability at 50 µM [3] [%] | survival (%) of cells with compound and cisplatin (20 μM) [3, 7] [%] | survival (%) of cells with compound and cisplatin (20 μM) [3, 8] [%] | survival (%) of cells with compound and cisplatin (20 μM) [3, 12] [%] | other results
1 | Cc1ccc(-n2c(=S)[nH]c3ccccc3c2=O)cc1F [Compound 1-17] | more effective; also recorded: more potent than mdivi-1 | 123 ± 5 | 10 ± 2 | 10 ± 2 | 34 ± 3 | 15 ± 8 | 76 ± 7 | 10 ± 1 | 101 ± 6 | 10 ± 1 | active | increase in Caspase-3/7 activity | cleavage of Caspase-8, 9, 3, PARP and the induction of Noxa | cell viability was reduced | 101 ± 2.9 | 101 ± 2.1 | 101 ± 1.4 | 63.0 ± 1.1 | 39.6 ± 3.0 | 26.7 ± 1.4 | Survival (%) of cells with compound and carboplatin (200 μM) [3, 9]: 90.7 ± 0.9%; Survival (%) of cells with compound and carboplatin (200 μM) [3, 10]: 79.3 ± 3.9%; Survival (%) of cells with compound and carboplatin (200 μM) [3, 11]: 69.7 ± 4.1%
2 | CCCn1c(=S)[nH]c2cc(OC)c(OC)cc2c1=O [Compound 1-8] | more effective; also recorded: more potent than mdivi-1 | 121 ± 4 | 14 ± 2 | 14 ± 2 | 38 ± 4 | 10 ± 1 | 72 ± 1 | 10 ± 1 | 93 ± 4 | 11 ± 1 | active | increase in Caspase-3/7 activity | cleavage of Caspase-8, 9, 3, PARP and the induction of Noxa | cell viability was reduced | 99.6 ± 2.9 | 96.3 ± 3.2 | 88.4 ± 2.1 | 53.4 ± 1.5 | 25.9 ± 2.3 | 17.9 ± 1.3 | Survival (%) of cells with compound and carboplatin (200 μM) [3, 9]: 89.5 + 2.1%; potency at enhancing the cytotoxicity of cisplatin compared to mdivi-1 ([3]; compound 10 μM with cisplatin, FIG. 4, in words): more potent than mdivi-1; Survival (%) of cells with compound and carboplatin (200 μM) [3, 10]: 65.8 ± 3.5%; Survival (%) of cells with compound and carboplatin (200 μM) [3, 11]: 42.5 ± 2.3%
3 | Cc1ccc(NC(=S)NC(=O)c2cccs2)nc1 [Compound 2-19] | – | – | – | – | – | – | – | – | – | – | active | – | – | – | 97.3 ± 1.8 | 95.9 ± 2.1 | 95.1 ± 6.4 | 100.4 ± 1.2 | 85.4 ± 9.6 | 53.2 ± 16.0 | caspase-3/7 activity (Lum), compound with cisplatin [1, 13]: 50 ± 8 Lum; caspase-3/7 activity (Lum), compound alone ([1]; Table 3, compound 20 μM): 9 ± 1 Lum; caspase-3/7 activity (Lum), compound alone ([1]; Table 4, compound 20 μM): 9 ± 1 Lum
4 | O=C(NC(=S)Nc1ccccn1)c1ccccc1 [Compound 2-32] | – | – | – | – | – | – | – | – | – | – | active | – | – | – | 97.2 ± 2.9 | 96 ± 1.7 | 81.8 ± 5.2 | 102.7 ± 3.9 | 64.9 ± 10.6 | 33.4 ± 11.8 | caspase-3/7 activity (Lum), compound with cisplatin [1, 13]: 4 ± 1 Lum; caspase-3/7 activity (Lum), compound alone ([1]; Table 3, compound 20 μM): 0 ± 1 Lum; caspase-3/7 activity (Lum), compound alone ([1]; Table 4, compound 20 μM): 0 ± 1 Lum; activity in the Caspase-3/7 activity assay ([1]; in words, possibly interference with the assay system): lack of activity; response in the CellTiter-Blue cell viability assay ([3]; in words): positive response
5 | O=c1c2ccccc2[nH]c(=S)n1Cc1ccccc1 [Compound 1-30] | – | 111 ± 8 | 18 ± 2 | 18 ± 2 | – | – | – | – | – | – | active | increase in Caspase-3/7 activity | – | – | 95 ± 2.6 | 95.4 ± 0.9 | 98.1 ± 0.9 | 73.4 ± 6.9 | 52.4 ± 1.2 | 53.2 ± 5.0 | –

— patent US10478437B2, “Combination therapy to enhance the anticancer efficacy of platinum drugs” (University of Pittsburgh-of the Commonwealth System of …, priority 2014, dated 2019)
